Where two headings read alike, the source gives them in different places.
Assays:
Lovo cells = assay: MTT tumor cell growth inhibition, Lovo; type: cell-based; conditions: 48 h, read-out: Tumors growth-inhibitory activity (IC50) Lovo
Protocol: (§1) Using MTT method to determine the growth inhibition activity of the matrine compounds on Lovo, MGC-803, Mia-paca2, HpeG-2, A549, k562, and Panc-1 cells in vitro. Logarithmic growth phase of Lovo, MGC-803, Mia-paca2, HpeG-2, A549, k562, Panc-1 cells were inoculated into 96-well plates (purchased from Institute of Biochemical Cells, Chinese Academy of Sciences, and cultured according to conventional tumor cell culture methods) at a density of 4×10^4/mL and 180 μL/well; after the cells adhered to the wall, 20 μL of drug solution was added to each well and matined the final drug concentrations were 0.1 μM, 1 μM, 10 μM, 50 μM, 100 μM respectively. After 48 h, 5 mg/mL MTT solution was added (20 μL/well) and maintained in a CO2 incubator for 3-4 h. After that, discarding the supernatant carefully, and DMSO was added (200 μL/well) when the residual liquid was air-dried, and shook for 0.5-1 h until the residual crystals was dissolved. The absorbance OD was measured at 492 nm by a microplate reader. GraphPad Prism 5 software was used to calculate the IC50 value.

MGC-803 cells = assay: MTT tumor cell growth inhibition, MGC-803; type: cell-based; conditions: 48 h, read-out: Tumors growth-inhibitory activity (IC50) MGC-803
Protocol: as §1

Mia-paca2 cells = assay: MTT tumor cell growth inhibition, Mia-paca2; type: cell-based; conditions: read-out: Tumors growth-inhibitory activity (IC50) Mia-paca2
Protocol: as §1

HpeG-2 cells = assay: MTT tumor cell growth inhibition, HpeG-2; type: cell-based; conditions: 48 h, read-out: Tumors growth-inhibitory activity (IC50) HpeG-2
Protocol: as §1

k562 cells = assay: MTT tumor cell growth inhibition, k562; type: cell-based; conditions: 48 h, read-out: Tumors growth-inhibitory activity (IC50) k562
Protocol: as §1

A549 cells = assay: MTT tumor cell growth inhibition, A549; type: cell-based; conditions: 48 h, read-out: Tumors growth-inhibitory activity (IC50) A549
Protocol: as §1

Panc-1 cells = assay: MTT tumor cell growth inhibition, Panc-1; type: cell-based; conditions: 48 h, read-out: Tumors growth-inhibitory activity (IC50) Panc-1
Protocol: as §1

TNF-α = TNF-α activity inhibiting assay (LPS-stimulated peripheral blood, ELISA); type: cell-based, human; conditions: compound 20 μM, LPS 10 ng/mL, 6 hours, diluted peripheral blood of healthy volunteers; for inhibition at 20 µM: Homo sapiens, read-out: TNF-α inhibition rate (%)
Protocol: Methods: Peripheral blood from healthy volunteers was collected with EDTA anticoagulant tubes. After being diluted 5-fold with 1640 medium (Gibco, USA), the blood was added to 96-well cell culture plates (Costar, USA) and then treated with 10 μL solution of the compound of general formula (I) of the present invention in DMSO (Sigma, USA), the final concentration of the compound was 20 μM with the final concentration of DMSO was 0.2%. After incubation for 60 minutes in an incubator at 37° C. under 5% CO2, 10 μL LPS (Sigma, USA) was added to the reaction system, and the final concentration was 10 ng/mL. After further culturing for 6 hours in the incubator at 37° C. under 5% CO2, the supernatant was collected. The content of TNF-α was determined by ELISA (BD Biosciences, USA). Absorbance was detected at OD450 nm with a microplate reader, with OD 650 nm as reference. The control, a solution containing 0.2% DMSO medium, was as 0% inhibition. Raw data and standard curves were recorded. The four-parameter drug inhibition curve was plotted by XL-fit software and the inhibition rate of each compound was calculated.

NC1CC[C@@H]2[C@H]3CCCN4CCC[C@@H](CN2C1=O)[C@@H]34 (some centres unmarked) [Compound M-3, 14-amino-matrine]
IC50 (Lovo cells; Homo sapiens): 50 to 100 µM | IC50 (MGC-803 cells; Homo sapiens): > 100 µM | IC50 (Mia-paca2 cells; Homo sapiens, MIA PaCa-2, 48 h): > 100 µM | IC50 (HpeG-2 cells): 50 to 100 µM | IC50 (k562 cells; Homo sapiens): 50 to 100 µM | IC50 (A549 cells; Homo sapiens): 50 to 100 µM | IC50 (Panc-1 cells; Homo sapiens): > 100 µM

O=C1c2cccc(F)c2C(=O)N1C1CC[C@@H]2[C@H]3CCCN4CCC[C@@H](CN2C1=O)[C@@H]34 (some centres unmarked) [GJD 03]
inhibition at 20 µM (TNF-α): > 50%

O=C1c2cccc(Cl)c2C(=O)N1C1CC[C@@H]2[C@H]3CCCN4CCC[C@@H](CN2C1=O)[C@@H]34 (some centres unmarked) [GJD 04]
inhibition at 20 µM (TNF-α): > 50%

O=C1c2cccc([N+](=O)[O-])c2C(=O)N1C1CC[C@@H]2[C@H]3CCCN4CCC[C@@H](CN2C1=O)[C@@H]34 (some centres unmarked) [GJD 05]
inhibition at 20 µM (TNF-α): > 50%

N#Cc1cccc2c1C(=O)N(C1CC[C@@H]3[C@H]4CCCN5CCC[C@@H](CN3C1=O)[C@@H]45)C2=O (some centres unmarked) [GJD 06]
inhibition at 20 µM (TNF-α): > 50% | IC50 (Lovo cells; Homo sapiens): 50 to 100 µM | IC50 (MGC-803 cells; Homo sapiens): > 100 µM | IC50 (Mia-paca2 cells; Homo sapiens, MIA PaCa-2, 48 h): 50 to 100 µM | IC50 (HpeG-2 cells): < 50 µM | IC50 (k562 cells; Homo sapiens): 50 to 100 µM | IC50 (A549 cells; Homo sapiens): 50 to 100 µM | IC50 (Panc-1 cells; Homo sapiens): 50 to 100 µM

Cc1cccc2c1C(=O)N(C1CC[C@@H]3[C@H]4CCCN5CCC[C@@H](CN3C1=O)[C@@H]45)C2=O (some centres unmarked) [GJD 08]
inhibition at 20 µM (TNF-α): > 50%

COc1cccc2c1C(=O)N(C1CC[C@@H]3[C@H]4CCCN5CCC[C@@H](CN3C1=O)[C@@H]45)C2=O (some centres unmarked) [GJD 09]
inhibition at 20 µM (TNF-α): > 50%

O=C1c2cccc(O)c2C(=O)N1C1CC[C@@H]2[C@H]3CCCN4CCC[C@@H](CN2C1=O)[C@@H]34 (some centres unmarked) [GJD 10]
TNF-α inhibition rate (%) (TNF-α): ≥50%

C#Cc1cccc2c1C(=O)N(C1CC[C@@H]3[C@H]4CCCN5CCC[C@@H](CN3C1=O)[C@@H]45)C2=O (some centres unmarked) [GJD 11]
inhibition at 20 µM (TNF-α): < 50%

CC(C)Nc1cccc2c1C(=O)N(C1CC[C@@H]3[C@H]4CCCN5CCC[C@@H](CN3C1=O)[C@@H]45)C2=O (some centres unmarked) [GJD 12]
inhibition at 20 µM (TNF-α): > 50%

CC(=O)Nc1cccc2c1C(=O)N(C1CC[C@@H]3[C@H]4CCCN5CCC[C@@H](CN3C1=O)[C@@H]45)C2=O (some centres unmarked) [GJD 13]
inhibition at 20 µM (TNF-α): > 50%

CS(=O)(=O)Nc1cccc2c1C(=O)N(C1CC[C@@H]3[C@H]4CCCN5CCC[C@@H](CN3C1=O)[C@@H]45)C2=O (some centres unmarked) [GJD 14]
inhibition at 20 µM (TNF-α): > 50%

COc1ccc2c(c1)C(=O)N(C1CC[C@@H]3[C@H]4CCCN5CCC[C@@H](CN3C1=O)[C@@H]45)C2=O (some centres unmarked) [GJD 16]
IC50 (Lovo cells; Homo sapiens): 50 to 100 µM | IC50 (MGC-803 cells; Homo sapiens): 50 to 100 µM | IC50 (Mia-paca2 cells; Homo sapiens, MIA PaCa-2, 48 h): 50 to 100 µM | IC50 (HpeG-2 cells): < 50 µM | IC50 (k562 cells; Homo sapiens): 50 to 100 µM | IC50 (A549 cells; Homo sapiens): > 100 µM | IC50 (Panc-1 cells; Homo sapiens): > 100 µM

Nc1ccc2c(c1)C(=O)N(C1CC[C@@H]3[C@H]4CCCN5CCC[C@@H](CN3C1=O)[C@@H]45)C2=O (some centres unmarked) [GJD 18]
inhibition at 20 µM (TNF-α): < 50%

COc1cc2c(cc1OC)C(=O)N(C1CC[C@@H]3[C@H]4CCCN5CCC[C@@H](CN3C1=O)[C@@H]45)C2=O (some centres unmarked) [GJD 19]
inhibition at 20 µM (TNF-α): < 50%

O=C1c2ccccc2C(=O)N1C1=CC[C@@H]2[C@H]3CCCN4CCC[C@@H](CN2C1=O)[C@@H]34 [GJD 22]
inhibition at 20 µM (TNF-α): > 50%

Cc1cccc2c1C(=O)N(C1=CC[C@@H]3[C@H]4CCCN5CCC[C@@H](CN3C1=O)[C@@H]45)C2=O [GJD 24]
IC50 (Lovo cells): < 50 µM | IC50 (MGC-803 cells): 50 to 100 µM | IC50 (Mia-paca2 cells; 48 h): 50 to 100 µM | IC50 (HpeG-2 cells): < 50 µM | IC50 (k562 cells): < 50 µM | IC50 (A549 cells): < 50 µM | IC50 (Panc-1 cells): 50 to 100 µM

O=C1[C@@H](N2C(=O)c3ccccc3C2=O)CC[C@@H]2[C@H]3CCCN4CCC[C@@H](CN12)[C@@H]34 [GJD 25]
IC50 (Lovo cells; Homo sapiens): 50 to 100 µM | IC50 (MGC-803 cells; Homo sapiens): > 100 µM | IC50 (Mia-paca2 cells; Homo sapiens, MIA PaCa-2, 48 h): > 100 µM | IC50 (HpeG-2 cells): 50 to 100 µM | IC50 (k562 cells; Homo sapiens): 50 to 100 µM | IC50 (A549 cells; Homo sapiens): 50 to 100 µM | IC50 (Panc-1 cells; Homo sapiens): > 100 µM

Nc1cccc2c1C(=O)N(C1CC[C@@H]3[C@H]4CCCN5CCC[C@H](CN3C1=O)[C@@H]45)C2=O (some centres unmarked) [GJD 27]
inhibition at 20 µM (TNF-α): > 50%
